Data reported in patent US6509163B1, “Methods of screening modulators of mammalian P2X7 purinergic receptors” (Glaxo Group Limited, priority 1997, dated 2003).

Experiments:
rP2X7 receptor = target: T1, rP2X7 receptor (Rattus norvegicus, UniProt Q64663); test: Whole-cell recordings in HEK293 cells transiently transfected with rP2X7 receptors (Example 3); type: cell-based
T1 construct: yielding a construct that encoded the entire P2X7 protein; expressed in transfected cells
T1 sequence (Q64663 1-595): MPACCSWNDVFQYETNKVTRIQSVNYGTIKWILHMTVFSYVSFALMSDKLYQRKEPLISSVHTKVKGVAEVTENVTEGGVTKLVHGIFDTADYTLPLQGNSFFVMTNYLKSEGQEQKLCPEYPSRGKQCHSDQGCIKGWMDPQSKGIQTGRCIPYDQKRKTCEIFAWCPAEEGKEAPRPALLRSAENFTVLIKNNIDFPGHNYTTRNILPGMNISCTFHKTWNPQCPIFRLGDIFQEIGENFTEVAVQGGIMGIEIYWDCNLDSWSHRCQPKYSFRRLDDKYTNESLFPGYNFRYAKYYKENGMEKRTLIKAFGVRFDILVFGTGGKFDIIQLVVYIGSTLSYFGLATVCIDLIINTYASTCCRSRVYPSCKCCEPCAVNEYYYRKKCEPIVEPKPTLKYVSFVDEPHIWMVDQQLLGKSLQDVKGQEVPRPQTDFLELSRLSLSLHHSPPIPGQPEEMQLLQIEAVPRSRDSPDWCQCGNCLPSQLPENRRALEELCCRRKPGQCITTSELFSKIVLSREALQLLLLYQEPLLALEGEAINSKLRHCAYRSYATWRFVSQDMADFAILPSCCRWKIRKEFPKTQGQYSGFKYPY
Procedure: (§1) Cell culture. HEK293 cells were transiently transfected with cDNA (1 μg/ml) and lipofectin dissolved in Optimem (GIBCO) placed into petri dishes containing four coverslips onto which cells were plated at a density of about 8×10^4/coverslip. Cells were washed 5 h later and normal DMEM applied. Electrophysiological studies or dye uptake measurements were carried out 18-49 h later. For each set of transfections, parallel experiments were performed on HEK cells transfected with cDNA encoding both rP2X7 and hP2X7 receptors.
(§2) Electrophysiological experiments. Whole-cell recordings were made using the EPC9 patch-clamp amplifier and Pulse acquisition programs (HEKA, Lambrecht, Germany). Patch pipettes (5-7 MΩ) contained (mM) CsCl or NaCl 154, EGTA 10, HEPES 5. The normal extracellular solution contained (mM) NaCg 147, KCl2, CaCl2 2, MgCl2 1, HEPES 10 and glucose 12, and the “low divalent” solution had no magnesium and 0.3 mM CaCl2. Agonists were delivered by U-tube delivery system; antagonists, when applied, were present in both superfusion and U-tube. Experiments were carried out at room temperature.

hP2X7 receptor = target: T2, hP2X7 receptor (Homo sapiens, UniProt Q99572); test: Whole-cell recordings in HEK293 cells transiently transfected with hP2X7 receptors (Example 3); type: cell-based
T2 construct: a clone containing the complete open reading frame of the hP2X7 receptor was constructed; expressed in transfected cells; host or cells: HEK293 (transient), pcDNA3
T2 sequence (Q99572 1-595): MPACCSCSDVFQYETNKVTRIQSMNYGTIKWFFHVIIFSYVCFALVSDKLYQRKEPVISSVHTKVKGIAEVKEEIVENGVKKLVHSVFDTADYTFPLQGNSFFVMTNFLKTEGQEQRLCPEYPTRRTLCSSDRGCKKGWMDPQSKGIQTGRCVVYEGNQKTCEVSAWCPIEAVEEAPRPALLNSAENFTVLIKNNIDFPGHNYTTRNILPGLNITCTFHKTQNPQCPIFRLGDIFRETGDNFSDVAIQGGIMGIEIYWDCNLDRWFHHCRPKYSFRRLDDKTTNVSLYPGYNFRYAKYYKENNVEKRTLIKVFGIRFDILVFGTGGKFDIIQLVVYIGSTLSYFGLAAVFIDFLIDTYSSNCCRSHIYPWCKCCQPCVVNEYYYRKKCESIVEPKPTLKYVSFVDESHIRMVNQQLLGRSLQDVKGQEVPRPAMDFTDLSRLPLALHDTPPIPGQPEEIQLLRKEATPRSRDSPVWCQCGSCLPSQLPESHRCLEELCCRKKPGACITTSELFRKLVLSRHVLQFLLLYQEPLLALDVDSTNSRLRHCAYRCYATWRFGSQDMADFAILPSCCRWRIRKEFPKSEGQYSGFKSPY
Procedure: as §1, §2

SMILES: Nc1ncnc2c1ncn2[C@@H]1O[C@H](COP(=O)(O)OP(=O)(O)OP(=O)(O)O)[C@@H](OC(=O)c2ccc(C(=O)c3ccccc3)cc2)[C@H]1O [BzATP, 3′-O-(4-benzoyl)benzoyl ATP]
- cation current induced by maximal concentration of BzATP (rP2X7 receptor; 30 μM BzATP, n=12): 1869±286 pA
- current measured at 30 s, of the peak current (rP2X7 receptor; low extracellular divalent concentrations, n=13): 80±3%
- EC50 at hP2X7 relative to rP2X7 receptor (fold greater) (hP2X7 receptor): 25 fold
- potency to activate the receptor relative to ATP (hP2X7 receptor): 10 fold
- cation current induced by maximal concentration of BzATP (hP2X7 receptor; 300 μM BzATP, n=12): 1777±342 pA
- current measured at 30 s, of the peak current (hP2X7 receptor; BzATP 300 μM, low extracellular divalent concentrations, n=16): 18±2%
